Test results as given in patent US20240270762A1, “PENICILLIN-BINDING PROTEIN INHIBITORS” (priority 2021, published 2024).
In brackets after ≈: the same amount, converted by molar mass.

Assays:
[1] = biological target: T1, PBP3 from Escherichia coli (K-12) (Escherichia coli, UniProt P0AD68); assay: Bocillin-FL fluorescence polarization competition binding, E. coli PBP3
T1 construct: made in house
Procedure, shortened: (§1)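 Purified PBPs pre-incubated with inhibitor (E. coli PBP3 1.5 μM, 30 min; P. aeruginosa PBP3 0.75 μM, A. baumannii PBP1a 1 μM and PBP3 0.2 μM, 15 min), then Bocillin-FL 0.1 μM (0.05 μM for PBP1a) added; FP read up to 60 min. EC50 = concentration halving bound Bocillin-FL.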

N. gonorrhoeae WHO M = assay: Liquid broth MIC in Fastidious broth; details: Neisseria gonorrhoeae, read-out: Minimum Inhibitory Concentration (MIC), N. gonorrhoeae WHO M
N. gonorrhoeae WHO Z = assay: Liquid broth MIC in Fastidious broth; details: Neisseria gonorrhoeae, read-out: Minimum Inhibitory Concentration (MIC), N. gonorrhoeae WHO Z
Description: Additional antibacterial testing of the series was performed in 8 reference strains of N. gonorrhoeae (ATCC 49226, FA1090, MS 11, WHO G, WHO L, WHO M, WHO K, WHO X, WHO Z, WHO Q, CDC-0197). ATCC 49226, FA1090, MS11, WHO G, WHO L, and WHO M produce wild type or wild-type like PBP2. WHO K, WHO X, WHO Z, WHO Q, and CDC-0197 produce mosaic PBP2. Liquid broth-based assays were used for antibacterial testing of PBP inhibitors in Neisseria gonorrhoeae. Briefly, cryo-preserved bacterial cultures of clinical strains were streaked for isolation on Chocolate Agar (72 g/L (2×) GC Agar Base (BD #228950) and 2% (2×) Hemoglobin was autoclaved at 121° C. for 20 minutes to sterilize. Once cooled to ˜50° C. the 2×GC Agar Base and 2× Hemoglobin solutions are combined and 1% IsoVitaleX Enrichment (BD #211876) was added to the solution). Strains were incubated at 36° C. and 5% CO2 to allow growth of colonies, 24 hours before inoculum preparation. 2-fold serial dilutions of test compounds were conducted in a 96 well plate with a final volume of 75 μL per well at 2-fold the final desired concentration in Fastidious broth (Remel #R07664). For preparation of assay inoculum, a direct suspension was prepared by aseptically swabbing 10-15 colonies from agar plates into culture tubes containing 2 mL of fresh sterile saline. After the dilution plates were set up, direct suspensions were then diluted in a cuvette containing sterile saline and the optical density was measured at 600 nm. Inocula were diluted such that 75 μL of this culture in Fastidious broth results in a starting bacterial concentration of 5×10^5 CFU/mL when added to the dilution plates. The plates were incubated for ˜24 hours at 36° C. and 5% CO2.

P. aeruginosa ATCC 35151 = assay: microbe, parasite or virus in culture; assay type: cell-based; details: Pseudomonas aeruginosa, ATCC35151, read-out: Minimum inhibitory concentration, P. aeruginosa ATCC 35151
A. baumannii CDC-0083 = assay: microbe, parasite or virus in culture; assay type: cell-based; details: Acinetobacter baumannii, CDC0083, read-out: MIC, A. baumannii CDC-0083
N. gonorrhoeae WHO K = assay: Liquid broth MIC in Fastidious broth; details: Neisseria gonorrhoeae, read-out: Minimum Inhibitory Concentration (MIC), N. gonorrhoeae WHO K
P. aeruginosa CDC-0090 = assay: microbe, parasite or virus in culture; assay type: cell-based; details: Pseudomonas aeruginosa, CDC0090, read-out: Minimum inhibitory concentration, P. aeruginosa CDC-0090
[2] = system: B. humptydooensis ATCC BAA-2767; assay: microbe, parasite or virus in culture; assay type: cell-based; details: Burkholderia humptydooensis, ATCCBAA2767, read-out: Minimum inhibitory concentration (MIC), B. humptydooensis ATCC BAA-2767
N. gonorrhoeae WHO L = assay: Liquid broth MIC in Fastidious broth; details: Neisseria gonorrhoeae, read-out: Minimum Inhibitory Concentration (MIC), N. gonorrhoeae WHO L
[3] = biological target: T2, PBP3 from Pseudomonas aeruginosa (PAO1) (Pseudomonas aeruginosa, UniProt G3XD46); assay: Bocillin-FL fluorescence polarization competition binding, P. aeruginosa PBP3; details: Binding affinity to P. aeruginosa PBP3; fluorescence polarization competition binding assay using Bocillin-FL; read-out: P. aeruginosa PBP3 Potency
T2 construct: made in house
Procedure, shortened: as §1

N. gonorrhoeae FA1090 = assay: Liquid broth MIC in Fastidious broth; details: Neisseria gonorrhoeae, FA1090, read-out: Minimum Inhibitory Concentration (MIC), N. gonorrhoeae FA 1090
N. gonorrhoeae WHO X = assay: Liquid broth MIC in Fastidious broth; details: Neisseria gonorrhoeae, read-out: Minimum Inhibitory Concentration (MIC), N. gonorrhoeae WHO X
Description: Liquid broth-based assays were used for antibacterial testing of PBP inhibitors in Neisseria gonorrhoeae. Briefly, cryo-preserved bacterial cultures of clinical strains were streaked for isolation on Chocolate Agar (72 g/L (2×) GC Agar Base (BD #228950) and 2% (2×) Hemoglobin was autoclaved at 121° C. for 20 minutes to sterilize. Once cooled to ˜50° C. the 2×GC Agar Base and 2× Hemoglobin solutions are combined and 1% IsoVitaleX Enrichment (BD #211876) was added to the solution). Strains were incubated at 36° C. and 5% CO2 to allow growth of colonies, 24 hours before inoculum preparation. 2-fold serial dilutions of test compounds were conducted in a 96 well plate with a final volume of 75 μL per well at 2-fold the final desired concentration in Fastidious broth (Remel #R07664). For preparation of assay inoculum, a direct suspension was prepared by aseptically swabbing 10-15 colonies from agar plates into culture tubes containing 2 mL of fresh sterile saline. After the dilution plates were set up, direct suspensions were then diluted in a cuvette containing sterile saline and the optical density was measured at 600 nm. Inocula were diluted such that 75 μL of this culture in Fastidious broth results in a starting bacterial concentration of 5×10^5 CFU/mL when added to the dilution plates. The plates were incubated for ˜24 hours at 36° C. and 5% CO2.

[4] = system: P. aeruginosa (ΔmexAB-oprM); assay: Broth microdilution MIC in iron-depleted CAMHB (IDM); assay type: cell-based; details: Pseudomonas aeruginosa; iron-depleted CAMHB (IDM); […]; read-out: Minimum inhibitory concentration, P. aeruginosa ΔmexAB-oprM
N. gonorrhoeae CDC-0197 = assay: Liquid broth MIC in Fastidious broth; details: Neisseria gonorrhoeae, CDC0197, read-out: Minimum Inhibitory Concentration (MIC), N. gonorrhoeae CDC-0197
Description: ATCC 49226, FA1090, MS11, WHO G, WHO L, and WHO M produce wild type or wild-type like PBP2. WHO K, WHO X, WHO Z, WHO Q, and CDC-0197 produce mosaic PBP2. Liquid broth-based assays were used for antibacterial testing of PBP inhibitors in Neisseria gonorrhoeae. Briefly, cryo-preserved bacterial cultures of clinical strains were streaked for isolation on Chocolate Agar (72 g/L (2×) GC Agar Base (BD #228950) and 2% (2×) Hemoglobin was autoclaved at 121° C. for 20 minutes to sterilize. Once cooled to ˜50° C. the 2×GC Agar Base and 2× Hemoglobin solutions are combined and 1% IsoVitaleX Enrichment (BD #211876) was added to the solution). Strains were incubated at 36° C. and 5% CO2 to allow growth of colonies, 24 hours before inoculum preparation. 2-fold serial dilutions of test compounds were conducted in a 96 well plate with a final volume of 75 μL per well at 2-fold the final desired concentration in Fastidious broth (Remel #R07664). For preparation of assay inoculum, a direct suspension was prepared by aseptically swabbing 10-15 colonies from agar plates into culture tubes containing 2 mL of fresh sterile saline. After the dilution plates were set up, direct suspensions were then diluted in a cuvette containing sterile saline and the optical density was measured at 600 nm. Inocula were diluted such that 75 μL of this culture in Fastidious broth results in a starting bacterial concentration of 5×10^5 CFU/mL when added to the dilution plates. The plates were incubated for ˜24 hours at 36° C. and 5% CO2.

A. baumannii ATCC 19606 = assay: microbe, parasite or virus in culture; assay type: cell-based; details: Acinetobacter baumannii, ATCC19606, read-out: MIC, A. baumannii ATCC 19606

T1 sequence (P0AD68 1-577): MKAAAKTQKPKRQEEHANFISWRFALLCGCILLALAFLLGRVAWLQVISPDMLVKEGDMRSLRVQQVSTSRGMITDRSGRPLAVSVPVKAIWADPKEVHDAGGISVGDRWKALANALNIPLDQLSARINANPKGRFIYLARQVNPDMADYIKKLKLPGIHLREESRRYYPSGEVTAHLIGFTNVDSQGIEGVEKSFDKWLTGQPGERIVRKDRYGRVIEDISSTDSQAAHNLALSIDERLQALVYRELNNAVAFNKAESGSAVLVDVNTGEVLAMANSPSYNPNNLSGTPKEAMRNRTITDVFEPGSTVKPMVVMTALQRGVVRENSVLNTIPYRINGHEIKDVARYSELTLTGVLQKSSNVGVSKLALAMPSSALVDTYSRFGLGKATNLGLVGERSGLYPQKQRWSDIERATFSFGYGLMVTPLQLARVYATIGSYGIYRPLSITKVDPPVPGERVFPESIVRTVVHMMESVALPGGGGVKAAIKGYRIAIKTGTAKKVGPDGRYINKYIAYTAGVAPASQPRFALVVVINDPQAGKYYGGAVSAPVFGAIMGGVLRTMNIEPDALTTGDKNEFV
T2 sequence (G3XD46 whole entry): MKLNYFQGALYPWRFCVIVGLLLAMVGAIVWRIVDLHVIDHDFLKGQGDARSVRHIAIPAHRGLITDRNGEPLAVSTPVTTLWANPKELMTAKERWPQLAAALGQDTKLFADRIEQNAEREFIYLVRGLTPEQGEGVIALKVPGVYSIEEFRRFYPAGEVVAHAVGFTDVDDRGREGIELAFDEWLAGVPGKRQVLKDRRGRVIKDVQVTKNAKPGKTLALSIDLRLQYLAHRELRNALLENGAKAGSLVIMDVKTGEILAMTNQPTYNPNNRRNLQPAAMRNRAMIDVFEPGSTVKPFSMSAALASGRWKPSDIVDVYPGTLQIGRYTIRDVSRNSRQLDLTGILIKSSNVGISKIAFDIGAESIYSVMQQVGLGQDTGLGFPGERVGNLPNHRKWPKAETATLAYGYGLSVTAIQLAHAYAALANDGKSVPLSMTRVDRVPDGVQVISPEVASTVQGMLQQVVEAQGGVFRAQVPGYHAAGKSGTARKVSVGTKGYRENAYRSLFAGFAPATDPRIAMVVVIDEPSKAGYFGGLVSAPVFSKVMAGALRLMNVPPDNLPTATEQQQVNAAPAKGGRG

SMILES: O=C(CN1CCN(C(=O)NC(C(=O)N[C@H]2Cc3ccc(F)c(C(=O)O)c3OB2O)c2cc(F)c(O)c(O)c2Cl)C(=O)C1=O)NCc1ccccc1 (stereo partly drawn) [Example 238]
- EC50 [1]: < 10 µM
- MIC (N. gonorrhoeae WHO M): 4 to 8 mg/L (≈ 5.48 to 11 µM)
- MIC (N. gonorrhoeae WHO Z): 16 to 32 mg/L (≈ 21.9 to 43.8 µM)
- MIC (P. aeruginosa ATCC 35151): < 1 mg/L
- MIC (A. baumannii CDC-0083): > 128 mg/L
- MIC (N. gonorrhoeae WHO K): > 64 mg/L
- MIC (P. aeruginosa CDC-0090): 2 to 4 mg/L (≈ 2.74 to 5.48 µM)
- MIC [2]: > 128 mg/L
- MIC (N. gonorrhoeae WHO L): > 64 mg/L
- IC50 [3]: < 10 µM
- MIC (N. gonorrhoeae FA1090): 1 to 2 mg/L (≈ 1.37 to 2.74 µM)
- MIC (N. gonorrhoeae WHO X): > 64 mg/L
- MIC [4]: < 1 mg/L
- MIC (N. gonorrhoeae CDC-0197): 16 to 32 mg/L (≈ 21.9 to 43.8 µM)
- MIC (A. baumannii ATCC 19606): < 1 mg/L

SMILES: O=C(CN1CCN(C(=O)N[C@@H](C(=O)N[C@H]2Cc3ccc(F)c(C(=O)O)c3OB2O)c2cc(F)c(O)c(O)c2Cl)C(=O)C1=O)NCc1ccncc1 [Example 239, (R)-3-((R)-2-(2-chloro-5-fluoro-3,4-dihydroxyphenyl)-2-(2,3-dioxo-4-(2-oxo-2-((pyridin-4-ylmethyl)amino)ethyl)piperazine-1-carboxamido)acetamido)-7-fluoro-2-hydroxy-3,4-dihydro-2H-benzo[e][1,2]oxaborinine-8-carboxylic acid]
- EC50 [1]: < 10 µM
- MIC (N. gonorrhoeae WHO M): 4 to 8 mg/L (≈ 5.47 to 10.9 µM)
- MIC (N. gonorrhoeae WHO Z): 16 to 32 mg/L (≈ 21.9 to 43.8 µM)
- MIC (P. aeruginosa ATCC 35151): < 1 mg/L
- MIC (A. baumannii CDC-0083): < 1 mg/L
- MIC (N. gonorrhoeae WHO K): > 64 mg/L
- MIC (P. aeruginosa CDC-0090): 2 to 4 mg/L (≈ 2.74 to 5.47 µM)
- MIC [2]: 32 to 64 mg/L (≈ 43.8 to 87.6 µM)
- MIC (N. gonorrhoeae WHO L): > 64 mg/L
- IC50 [3]: < 10 µM
- MIC (N. gonorrhoeae FA1090): 1 to 2 mg/L (≈ 1.37 to 2.74 µM)
- MIC (N. gonorrhoeae WHO X): > 64 mg/L
- MIC [4]: < 1 mg/L
- MIC (N. gonorrhoeae CDC-0197): 16 to 32 mg/L (≈ 21.9 to 43.8 µM)
- MIC (A. baumannii ATCC 19606): < 1 mg/L

SMILES: O=C(CN1CCN(C(=O)NC(C(=O)N[C@H]2Cc3ccc(F)c(C(=O)O)c3OB2O)c2cc(F)c(O)c(O)c2Cl)C(=O)C1=O)NCc1cccnc1 (stereo partly drawn) [Example 240, (3R)-3-(2-(2-chloro-5-fluoro-3,4-dihydroxyphenyl)-2-(2,3-dioxo-4-(2-oxo-2-((pyridin-3-ylmethyl)amino)ethyl)piperazine-1-carboxamido)acetamido)-7-fluoro-2-hydroxy-3,4-dihydro-2H-benzo[e][1,2]oxaborinine-8-carboxylic acid]
- EC50 [1]: < 10 µM
- MIC (N. gonorrhoeae WHO M): 4 to 8 mg/L (≈ 5.47 to 10.9 µM)
- MIC (N. gonorrhoeae WHO Z): 16 to 32 mg/L (≈ 21.9 to 43.8 µM)
- MIC (P. aeruginosa ATCC 35151): < 1 mg/L
- MIC (A. baumannii CDC-0083): > 128 mg/L
- MIC (N. gonorrhoeae WHO K): > 64 mg/L
- MIC (P. aeruginosa CDC-0090): 2 to 4 mg/L (≈ 2.74 to 5.47 µM)
- MIC [2]: 2 to 4 mg/L (≈ 2.74 to 5.47 µM)
- MIC (N. gonorrhoeae WHO L): > 64 mg/L
- IC50 [3]: < 10 µM
- MIC (N. gonorrhoeae FA1090): 1 to 2 mg/L (≈ 1.37 to 2.74 µM)
- MIC (N. gonorrhoeae WHO X): > 64 mg/L
- MIC [4]: < 1 mg/L
- MIC (N. gonorrhoeae CDC-0197): 16 to 32 mg/L (≈ 21.9 to 43.8 µM)
- MIC (A. baumannii ATCC 19606): < 1 mg/L

SMILES: O=C(CN1CCN(C(=O)N[C@@H](C(=O)N[C@H]2Cc3ccc(F)c(C(=O)O)c3OB2O)c2cc(F)c(O)c(O)c2Cl)C(=O)C1=O)NCc1nccs1 [Example 241, (R)-3-((R)-2-(2-chloro-5-fluoro-3,4-dihydroxyphenyl)-2-(2,3-dioxo-4-(2-oxo-2-((thiazol-2-ylmethyl)amino)ethyl)piperazine-1-carboxamido)acetamido)-7-fluoro-2-hydroxy-3,4-dihydro-2H-benzo[e][1,2]oxaborinine-8-carboxylic acid]
- EC50 [1]: < 10 µM
- MIC (N. gonorrhoeae WHO M): 4 to 8 mg/L (≈ 5.43 to 10.9 µM)
- MIC (N. gonorrhoeae WHO Z): 16 to 32 mg/L (≈ 21.7 to 43.4 µM)
- MIC (P. aeruginosa ATCC 35151): < 1 mg/L
- MIC (A. baumannii CDC-0083): > 128 mg/L
- MIC (N. gonorrhoeae WHO K): 16 to 32 mg/L (≈ 21.7 to 43.4 µM)
- MIC (P. aeruginosa CDC-0090): 2 to 4 mg/L (≈ 2.71 to 5.43 µM)
- MIC [2]: 2 to 4 mg/L (≈ 2.71 to 5.43 µM)
- MIC (N. gonorrhoeae WHO L): > 64 mg/L
- IC50 [3]: < 10 µM
- MIC (N. gonorrhoeae FA1090): 1 to 2 mg/L (≈ 1.36 to 2.71 µM)
- MIC (N. gonorrhoeae WHO X): > 64 mg/L
- MIC [4]: < 1 mg/L
- MIC (N. gonorrhoeae CDC-0197): 16 to 32 mg/L (≈ 21.7 to 43.4 µM)
- MIC (A. baumannii ATCC 19606): < 1 mg/L

SMILES: O=C(NCCN1CCN(C(=O)NC(C(=O)N[C@H]2Cc3ccc(F)c(C(=O)O)c3OB2O)c2cc(F)c(O)c(O)c2Cl)C1=O)c1ccccc1 (stereo partly drawn) [Example 242, (3R)-3-(2-(3-(2-benzamidoethyl)-2-oxoimidazolidine-1-carboxamido)-2-(2-chloro-5-fluoro-3,4-dihydroxyphenyl)acetamido)-7-fluoro-2-hydroxy-3,4-dihydro-2H-benzo[e][1,2]oxaborinine-8-carboxylic acid]
- EC50 [1]: < 10 µM
- MIC (N. gonorrhoeae WHO M): 16 to 32 mg/L (≈ 22.8 to 45.6 µM)
- MIC (N. gonorrhoeae WHO Z): 16 to 32 mg/L (≈ 22.8 to 45.6 µM)
- MIC (P. aeruginosa ATCC 35151): < 1 mg/L
- MIC (A. baumannii CDC-0083): 2 to 4 mg/L (≈ 2.85 to 5.7 µM)
- MIC (N. gonorrhoeae WHO K): > 64 mg/L
- MIC (P. aeruginosa CDC-0090): < 1 mg/L
- MIC [2]: 8 to 16 mg/L (≈ 11.4 to 22.8 µM)
- MIC (N. gonorrhoeae WHO L): > 64 mg/L
- IC50 [3]: < 10 µM
- MIC (N. gonorrhoeae FA1090): 1 to 2 mg/L (≈ 1.42 to 2.85 µM)
- MIC (N. gonorrhoeae WHO X): > 64 mg/L
- MIC [4]: < 1 mg/L
- MIC (N. gonorrhoeae CDC-0197): > 64 mg/L
- MIC (A. baumannii ATCC 19606): < 1 mg/L

SMILES: O=C(NCCN1CCN(C(=O)NC(C(=O)N[C@H]2Cc3ccc(F)c(C(=O)O)c3OB2O)c2cc(F)c(O)c(O)c2Cl)C1=O)c1ccc(O)cc1 (stereo partly drawn) [Example 243, (3R)-3-(2-(2-chloro-5-fluoro-3,4-dihydroxyphenyl)-2-(3-(2-(4-hydroxybenzamido)ethyl)-2-oxoimidazolidine-1-carboxamido)acetamido)-7-fluoro-2-hydroxy-3,4-dihydro-2H-benzo[e][1,2]oxaborinine-8-carboxylic acid]
- EC50 [1]: 10 to 50 µM
- MIC (N. gonorrhoeae WHO M): 4 to 8 mg/L (≈ 5.57 to 11.1 µM)
- MIC (N. gonorrhoeae WHO Z): 16 to 32 mg/L (≈ 22.3 to 44.6 µM)
- MIC (P. aeruginosa ATCC 35151): < 1 mg/L
- MIC (A. baumannii CDC-0083): < 1 mg/L
- MIC (N. gonorrhoeae WHO K): > 64 mg/L
- MIC (P. aeruginosa CDC-0090): < 1 mg/L
- MIC [2]: 2 to 4 mg/L (≈ 2.79 to 5.57 µM)
- MIC (N. gonorrhoeae WHO L): > 64 mg/L
- IC50 [3]: < 10 µM
- MIC (N. gonorrhoeae FA1090): 4 to 8 mg/L (≈ 5.57 to 11.1 µM)
- MIC (N. gonorrhoeae WHO X): > 64 mg/L
- MIC [4]: < 1 mg/L
- MIC (N. gonorrhoeae CDC-0197): 16 to 32 mg/L (≈ 22.3 to 44.6 µM)
- MIC (A. baumannii ATCC 19606): < 1 mg/L

SMILES: O=C(NCCN1CCN(C(=O)NC(C(=O)N[C@H]2Cc3ccc(F)c(C(=O)O)c3OB2O)c2cc(F)c(O)c(O)c2Cl)C1=O)c1cccc(O)c1 (stereo partly drawn) [Example 244, (3R)-3-(2-(2-chloro-5-fluoro-3,4-dihydroxyphenyl)-2-(3-(2-(3-hydroxybenzamido)ethyl)-2-oxoimidazolidine-1-carboxamido)acetamido)-7-fluoro-2-hydroxy-3,4-dihydro-2H-benzo[e][1,2]oxaborinine-8-carboxylic acid]
- EC50 [1]: 10 to 50 µM
- MIC (N. gonorrhoeae WHO M): 16 to 32 mg/L (≈ 22.3 to 44.6 µM)
- MIC (N. gonorrhoeae WHO Z): > 64 mg/L
- MIC (P. aeruginosa ATCC 35151): < 1 mg/L
- MIC (A. baumannii CDC-0083): < 1 mg/L
- MIC (N. gonorrhoeae WHO K): > 64 mg/L
- MIC (P. aeruginosa CDC-0090): < 1 mg/L
- MIC [2]: 2 to 4 mg/L (≈ 2.79 to 5.57 µM)
- MIC (N. gonorrhoeae WHO L): > 64 mg/L
- IC50 [3]: < 10 µM
- MIC (N. gonorrhoeae FA1090): 4 to 8 mg/L (≈ 5.57 to 11.1 µM)
- MIC (N. gonorrhoeae WHO X): > 64 mg/L
- MIC [4]: < 1 mg/L
- MIC (N. gonorrhoeae CDC-0197): > 64 mg/L
- MIC (A. baumannii ATCC 19606): < 1 mg/L
